The record followed here is PMC5799307, “Creation of a long-acting nanoformulated dolutegravir” (Nature Communications, 2018).

For data set [1], the system named is MDM. Description: LDH cytotoxicity assay in MDM. The format is cell-based, human. The note with it: 24 h, 400 µM.
Data set [2] can be described thus: Blood and tissue DTG levels and animal weights in hu-PBL-NSG mice. The data set is classed as in vivo. The note with it: NOD/scid-IL-2Rγc^null (NSG), mouse, intramuscular, 45 mg/kg DTG-eq.; kidney, day 39; read-out: tissue DTG level. As for the experimental part:
NOD/scid-IL-2Rγc^null (NSG) mice (6–7 weeks of age; Jackson Labs, Bar Harbor, ME) were administered a single IM injection in a volume of 40 µL/25 g mouse of NDTG or NMDTG at a concentration of 45 mg/kg DTG-eq. on day 0 for measures of relative viral restriction. Mice were then reconstituted with 25 × 10^6 human peripheral blood lymphocytes (hu-PBL) per mouse 4 or 19 days post drug treatment by IP injection. Next, mice were challenged 10 days post hu-PBL reconstitution with HIV-1ADA at 14 or 29 days post drug treatment by IP injection at a TCID50 of 2 × 10^4 per mouse. […] Plasma was saved for viral load (HIV-1 RNA) quantitation using the Roche Amplicor and Taqman-48 system [HIV-1 kit V2.0 according to the manufacturer’s instructions (Indianapolis, IN)]. Blood and tissue drug concentrations were determined by UPLC-MS/MS as described above. […] The number of HIV-1p24+ and HLA-DP/DQ/DR+ cells per section were counted and expressed as percentage of HIV-1p24+ cells/HLA-DP/DQ/DR+ cells per section. […] Plasma was used for quantitative viral load (measurements of HIV-1 RNA) using the Roche Amplicor and Taqman-48 system. Blood and tissue drug concentrations were determined by UPLC-MS/MS as described above. […]

The structures appear in SMILES notation.

As for `C[C@@H]1CCO[C@H]2Cn3cc(C(=O)NCc4ccc(F)cc4F)c(=O)c(O)c3C(=O)N12` [DTG, dolutegravir], the “cytotoxicity by LDH” value in data set [1] is on record as “changes in cell vitality”. Moreover, the concentration at 39 days in data set [2] is 4.1 ng/g.
